From the CheMixHub viscosity set
± gives the uncertainty stated by the source.

Test: xn = mol fraction of the nth substance listed

CCOCCOCCO + ClC=C(Cl)Cl
298.15 K, 101.33 kPa
Details	viscosity [mPa·s]
x1 = 0.0082	0.539 ± 0.006
x1 = 0.0263	0.563 ± 0.006
x1 = 0.0381	0.58 ± 0.006
x1 = 0.0517	0.602 ± 0.006
x1 = 0.0641	0.62 ± 0.006
x1 = 0.0756	0.639 ± 0.007
x1 = 0.0944	0.669 ± 0.007
x1 = 0.129	0.736 ± 0.007
x1 = 0.1724	0.823 ± 0.008
x1 = 0.2108	0.91 ± 0.009
x1 = 0.2459	0.997 ± 0.01
x1 = 0.2921	1.117 ± 0.011
x1 = 0.3336	1.235 ± 0.012
x1 = 0.3791	1.376 ± 0.014
x1 = 0.4231	1.528 ± 0.015
x1 = 0.457	1.659 ± 0.016
x1 = 0.4908	1.788 ± 0.018
x1 = 0.5204	1.902 ± 0.019
x1 = 0.557	2.042 ± 0.02
x1 = 0.5875	2.163 ± 0.021
x1 = 0.632	2.342 ± 0.023
x1 = 0.6736	2.519 ± 0.025
x1 = 0.7163	2.701 ± 0.027
x1 = 0.7635	2.912 ± 0.029
x1 = 0.7976	3.068 ± 0.031
x1 = 0.8333	3.224 ± 0.033
x1 = 0.8779	3.423 ± 0.035
x1 = 0.9203	3.621 ± 0.037
x1 = 0.9414	3.723 ± 0.039
x1 = 0.9717	3.857 ± 0.04
x2 = 0.018	3.895 ± 0.041

ClC(Cl)=C(Cl)Cl + CC#N
303.15 K, 101.32 kPa
Details	viscosity [mPa·s]
x2 = 0.1294	0.7489 ± 0.009
x2 = 0.1929	0.7334 ± 0.0089
x2 = 0.3101	0.699 ± 0.0086
x2 = 0.4022	0.6632 ± 0.0083
x2 = 0.4671	0.631 ± 0.008
x2 = 0.5673	0.5728 ± 0.0076
x2 = 0.6707	0.505 ± 0.0071
x2 = 0.7358	0.4619 ± 0.0067
x2 = 0.846	0.3947 ± 0.0062
x2 = 0.9295	0.3522 ± 0.0058

O=[N+]([O-])c1ccccc1 + CC(C)(C)O
viscosity [mPa·s], 101.33 kPa
Details	x1 = 0.0627	x1 = 0.1307	x1 = 0.2059	x1 = 0.2864	x1 = 0.3758	x1 = 0.4746	x1 = 0.5843	x1 = 0.7067	x1 = 0.8442
298.15 K	3.205 ± 0.14	2.576 ± 0.12	2.256 ± 0.1	2.001 ± 0.092	1.838 ± 0.085	1.711 ± 0.08	1.655 ± 0.077	1.697 ± 0.079	1.681 ± 0.079
303.15 K	2.375 ± 0.11	2.152 ± 0.098	1.896 ± 0.088	1.732 ± 0.081	1.622 ± 0.076	1.506 ± 0.071	1.468 ± 0.07	1.477 ± 0.07	1.538 ± 0.073

CN(C)C=O + CCCCO
Details	viscosity [mPa·s]
298.15 K, 101 kPa, x1 = 0.5035	1.381 ± 0.34

CCCCCCCC + C1CCCCC1
Details	viscosity [mPa·s]
298.15 K, 100 kPa, x2 = 0.2	0.5398 ± 0.022
298.15 K, 100 kPa, x2 = 0.4	0.5777 ± 0.023
298.15 K, 100 kPa, x2 = 0.6	0.6273 ± 0.025
298.15 K, 100 kPa, x2 = 0.8	0.7162 ± 0.029
298.15 K, 101.33 kPa, x2 = 0.0972	0.516 ± 0.004
298.15 K, 101.33 kPa, x2 = 0.1084	0.5318 ± 0.0049
298.15 K, 101.33 kPa, x2 = 0.2042	0.53 ± 0.004
298.15 K, 101.33 kPa, x2 = 0.2223	0.549 ± 0.005
298.15 K, 101.33 kPa, x2 = 0.3014	0.548 ± 0.004
298.15 K, 101.33 kPa, x2 = 0.3199	0.569 ± 0.0052
298.15 K, 101.33 kPa, x2 = 0.4044	0.568 ± 0.004
298.15 K, 101.33 kPa, x2 = 0.412	0.5851 ± 0.0053
298.15 K, 101.33 kPa, x2 = 0.5009	0.607 ± 0.0055
298.15 K, 101.33 kPa, x2 = 0.5017	0.591 ± 0.004
298.15 K, 101.33 kPa, x2 = 0.5763	0.628 ± 0.0056
298.15 K, 101.33 kPa, x2 = 0.6029	0.62 ± 0.005
298.15 K, 101.33 kPa, x2 = 0.6597	0.6568 ± 0.0058
298.15 K, 101.33 kPa, x2 = 0.7041	0.661 ± 0.005
298.15 K, 101.33 kPa, x2 = 0.7236	0.6788 ± 0.006
298.15 K, 101.33 kPa, x2 = 0.7926	0.7148 ± 0.0062
298.15 K, 101.33 kPa, x2 = 0.8014	0.705 ± 0.005
298.15 K, 101.33 kPa, x2 = 0.8586	0.8162 ± 0.007
298.15 K, 101.33 kPa, x2 = 0.8971	0.774 ± 0.005
298.15 K, 101.33 kPa, x2 = 0.9173	0.8737 ± 0.0074
298.15 K, 101.33 kPa, x2 = 0.9767	0.8737 ± 0.0074
303.15 K, 101 kPa, x2 = 0.1031	0.4956 ± 0.0038
303.15 K, 101 kPa, x2 = 0.1978	0.51 ± 0.0038
303.15 K, 101 kPa, x2 = 0.2979	0.5238 ± 0.0039
303.15 K, 101 kPa, x2 = 0.4018	0.5434 ± 0.004
303.15 K, 101 kPa, x2 = 0.4842	0.5614 ± 0.004
303.15 K, 101 kPa, x2 = 0.7004	0.6348 ± 0.0044
303.15 K, 101 kPa, x2 = 0.8984	0.7473 ± 0.0049
303.15 K, 101.33 kPa, x2 = 0.0972	0.487 ± 0.004
303.15 K, 101.33 kPa, x2 = 0.2042	0.498 ± 0.004
303.15 K, 101.33 kPa, x2 = 0.3014	0.515 ± 0.004
303.15 K, 101.33 kPa, x2 = 0.4044	0.533 ± 0.004
303.15 K, 101.33 kPa, x2 = 0.5017	0.554 ± 0.004
303.15 K, 101.33 kPa, x2 = 0.6029	0.581 ± 0.004
303.15 K, 101.33 kPa, x2 = 0.7041	0.614 ± 0.005
303.15 K, 101.33 kPa, x2 = 0.8014	0.656 ± 0.005
303.15 K, 101.33 kPa, x2 = 0.8971	0.717 ± 0.005
308.15 K, 101.33 kPa, x2 = 0.0972	0.459 ± 0.004
308.15 K, 101.33 kPa, x2 = 0.2042	0.469 ± 0.004
308.15 K, 101.33 kPa, x2 = 0.3014	0.483 ± 0.004
308.15 K, 101.33 kPa, x2 = 0.4044	0.501 ± 0.004
308.15 K, 101.33 kPa, x2 = 0.5017	0.518 ± 0.004
308.15 K, 101.33 kPa, x2 = 0.6029	0.543 ± 0.004
308.15 K, 101.33 kPa, x2 = 0.7041	0.573 ± 0.004
308.15 K, 101.33 kPa, x2 = 0.8014	0.608 ± 0.004
308.15 K, 101.33 kPa, x2 = 0.8971	0.664 ± 0.005
323.15 K, 100 kPa, x2 = 0.2	0.4103 ± 0.017
323.15 K, 100 kPa, x2 = 0.4	0.4326 ± 0.018
323.15 K, 100 kPa, x2 = 0.6	0.4655 ± 0.019
323.15 K, 100 kPa, x2 = 0.8	0.5138 ± 0.021

C=C(C)C(=O)O + O=C1CCCCC1
viscosity [mPa·s], 101 kPa
Details	x2 = 0.1	x2 = 0.2	x2 = 0.3	x2 = 0.4	x2 = 0.5	x2 = 0.5999	x2 = 0.7	x2 = 0.8	x2 = 0.9
298.15 K	1.369 ± 0.032	1.528 ± 0.035	1.659 ± 0.038	1.809 ± 0.042	1.901 ± 0.044	1.949 ± 0.045	1.999 ± 0.046	2.045 ± 0.047	2.037 ± 0.047
308.15 K	1.159 ± 0.027	1.281 ± 0.03	1.389 ± 0.032	1.508 ± 0.035	1.583 ± 0.037	1.616 ± 0.037	1.651 ± 0.038	1.683 ± 0.039	1.684 ± 0.039
318.15 K	0.999 ± 0.023	1.101 ± 0.026	1.183 ± 0.027	1.275 ± 0.03	1.33 ± 0.031	1.359 ± 0.032	1.395 ± 0.032	1.424 ± 0.033	1.422 ± 0.033

O=[N+]([O-])c1ccccc1 + CCCCO
viscosity [mPa·s]
Details	298.15 K	303.15 K	308.15 K	318.15 K
101 kPa, x1 = 0.2	–	–	1.58 ± 0.019	1.27 ± 0.015
101 kPa, x1 = 0.4	–	–	1.411 ± 0.017	1.128 ± 0.014
101 kPa, x1 = 0.6	–	–	1.339 ± 0.016	1.109 ± 0.013
101 kPa, x1 = 0.8	–	–	1.35 ± 0.016	1.147 ± 0.013
101 kPa, x1 = 0.9	–	–	1.403 ± 0.016	1.196 ± 0.014
101 kPa, x1 = 0.95	–	–	1.453 ± 0.017	1.252 ± 0.015
101.33 kPa, x1 = 0.0625	2.311 ± 0.11	2.075 ± 0.095	–	–
101.33 kPa, x1 = 0.1311	2.142 ± 0.098	1.878 ± 0.087	–	–
101.33 kPa, x1 = 0.2051	1.954 ± 0.09	1.739 ± 0.081	–	–
101.33 kPa, x1 = 0.2885	1.814 ± 0.084	1.611 ± 0.076	–	–
101.33 kPa, x1 = 0.376	1.711 ± 0.08	1.559 ± 0.073	–	–
101.33 kPa, x1 = 0.4747	1.65 ± 0.077	1.423 ± 0.068	–	–
101.33 kPa, x1 = 0.5846	1.589 ± 0.075	1.446 ± 0.069	–	–
101.33 kPa, x1 = 0.7007	1.625 ± 0.076	1.476 ± 0.07	–	–
101.33 kPa, x1 = 0.8442	1.658 ± 0.078	1.509 ± 0.071	–	–

CCCCCCCC + CCCCCCCCCC
viscosity [mPa·s]
Details	297.95 K	298.15 K	313.05 K
101 kPa, x1 = 0.1384	0.8136 ± 0.037	–	0.6803 ± 0.031
101 kPa, x1 = 0.2144	0.7783 ± 0.035	–	0.6439 ± 0.03
101 kPa, x1 = 0.3015	0.7465 ± 0.034	–	0.6261 ± 0.029
101 kPa, x1 = 0.3894	0.6993 ± 0.032	–	0.5975 ± 0.028
101 kPa, x1 = 0.452	0.6767 ± 0.031	–	0.5817 ± 0.027
101 kPa, x1 = 0.601	0.6312 ± 0.029	–	0.5417 ± 0.026
101 kPa, x1 = 0.6988	0.5898 ± 0.028	–	0.5129 ± 0.025
101 kPa, x1 = 0.8208	0.5543 ± 0.026	–	0.4761 ± 0.023
101 kPa, x1 = 0.8858	0.5327 ± 0.025	–	0.4643 ± 0.023
101.33 kPa, x1 = 0.1059	–	0.8166 ± 0.011	–
101.33 kPa, x1 = 0.2142	–	0.7747 ± 0.01	–
101.33 kPa, x1 = 0.3038	–	0.7382 ± 0.0098	–
101.33 kPa, x1 = 0.4052	–	0.6937 ± 0.0093	–
101.33 kPa, x1 = 0.5057	–	0.6694 ± 0.0091	–
101.33 kPa, x1 = 0.6061	–	0.6305 ± 0.0086	–
101.33 kPa, x1 = 0.7032	–	0.6018 ± 0.0083	–
101.33 kPa, x1 = 0.8002	–	0.5722 ± 0.008	–
101.33 kPa, x1 = 0.9058	–	0.5366 ± 0.0076	–

CC(C)CCl + C1CCOC1
viscosity [mPa·s], 101 kPa
Details	298.15 K	313.15 K
x2 = 0.0537	0.4311 ± 0.0053	0.368 ± 0.0051
x2 = 0.1037	0.4325 ± 0.0053	0.3694 ± 0.005
x2 = 0.2081	0.4353 ± 0.0053	0.3723 ± 0.005
x2 = 0.3079	0.4379 ± 0.0053	0.3751 ± 0.005
x2 = 0.41	0.4409 ± 0.0052	0.3781 ± 0.005
x2 = 0.5085	0.4442 ± 0.0052	0.381 ± 0.005
x2 = 0.5964	0.4472 ± 0.0052	0.3837 ± 0.005
x2 = 0.705	0.4512 ± 0.0052	0.3871 ± 0.0049
x2 = 0.8051	0.455 ± 0.0052	0.3904 ± 0.0049
x2 = 0.8989	0.4589 ± 0.0051	0.3938 ± 0.0049
x2 = 0.951	0.461 ± 0.0051	0.3957 ± 0.0049
